One experiment concerns the target T1, Bcl-xL/BODIPY-BAK (Homo sapiens, UniProt Q07817, DEL26-81).
T1 construct: pET28a His-SUMO Bcl-xL (1-198, missing 26-81); His-SUMO (N, cleaved yes); made in house; host or cells: E. coli Rosetta 2
Kind of experiment: Fluorescence anisotropy competition assay, inhibition of Bcl-xL/BODIPY-BAK interaction. It counts as binding. As to the method: (§1) To profile the binding behaviour of the constrained peptides we tested them in both competition displacement assays and direct binding assays. […] Of particular interest was the potential for the introduction of a constraint to have differential effects on protein specificity/selectivity. […] We next tested the constrained peptides in inhibition assays (Fig. 3a and b and Table 2). […]
(§2) constructs were over-expressed in the E. coli strain Rosetta 2. Cells were resuspended in 50mM TRIS pH 8.0, 500mM NaCl, 15mM Imidazole and lysed by sonication. The clarified lysate was applied to a 5ml HisTrap column equilibrated with 50mM TRIS pH 8.0, 500mM NaCl, 15mM Imidazole. The HisTrap was then washed with 10 CV of 50mM TRIS pH 8.0, 500mM NaCl, 15mM Imidazole followed by 10 CV 50mM TRIS pH 8.0, 500mM NaCl, 25mM Imidazole. The fusion proteins were eluted in 50mM TRIS pH 8.0, 500mM NaCl, 300mM Imidazole. TheHis-SUMO tag was removed in overnight in dialysis into 50mM TRIS pH 8.0, 250mM NaCl in the presence of Smt3 protease, Ulp1, overnight at 4°C. Uncleaved material and His-SUMO were removed by reapplication of the sample to a HisTrap in 50mM TRIS pH 8.0, 250mM NaCl and the flow through containing Mcl- […]
(§3) The proteins were then filtered before further purification on a Superdex 75 (GE […]
(§4) proteins were concentrated and stored at -80°C.
(§5) The assays were performed as detailed in 10, 11.
(§6) The buffers used for fluorescence anisotropy were either phosphate buffer (40 mM sodium phosphate, 200 mM sodium chloride, 0.02 mg ml-1 bovine serum albumin, pH 7.50) or Tris buffer (50 mM Tris, 140 mM sodium chloride, pH 7.50). Phosphate buffer was used for all competition assays […]
(§7) Assays were run in 96 or 384 well Optiplates and were scanned using a Perkin Elmer EnVisionTM 2103 MultiLabel plate reader. Fluorescein labelled peptides used an excitation and emission wavelength of 480 (30) nm and 535 (40) nm respectively (dichroic mirror 505 nm) whilst BODIPY labelled peptides used an excitation and emission wavelength of 531 (25) nm and 595 (60) nm respectively (dichroic mirror 555 nm), […]
(§8) Plates were read after 1 h […]
(§9) respectively. Plates were read after 1 h. […]
(§10) Processing of fluorescence anisotropy data
(§11) Fluorescence anisotropy data was processed using Microsoft Excel to calculate intensity, anisotropy […]
(§12) b (λ(rmax − r) + r − rmin) r = anisotropy, I = total intensity, P = perpendicular intensity, S = parallel intensity, Lb = fraction ligand bound, λ = Ibound/Iunbound , G = 1= instrumental factor. […]
(§13) the calculation of IC50 and EC50) or to the Kd model for the extraction of Kd values:
(§14) Where for the logisitic model; y = r = anisotropy, xo = mid-point of the curve between the rmax and rmin […]
(§15) For the Kd model; y = Lb*[FL], K = Kd, [FL] = Concentration of fluorescent ligand.

In a further experiment the target is T2, Bcl-xL (Homo sapiens, UniProt Q07817, DEL26-81).
T2 construct: pET28a His-SUMO Bcl-xL (1-198, missing 26-81); made in house; host or cells: E. coli Rosetta 2
Kind of experiment: Fluorescence anisotropy direct binding assay with Bcl-xL. The note with it: for EC50: Bcl-xL titrated into FITC-labelled peptide (25-100 nM), 50 mM tris, 140 mM NaCl, pH 7.50, logistic fit. The method, then: (§16) Direct titration experiments were also performed for FITC labelled BID peptides (Fig. 5). […]
as §2, §3, §4, §5, §6, §7, §8
(§17) respectively. Plates were read after 1 h.
(§18) For all variants of the labelled BID peptides (FITC-BID-WT,FITC-BID-MM, FITC-BID-DM and FITC-BID-Aib), the direct binding assays were performed in Tris Buffer in 384 well plates. In protein titrations, the protein concentration started from between 1-10 µM and was diluted over 24 points in a 3/4 dilution regime, with the concentration of the labelled peptide fixed at 25-100 nM. In the peptide titrations, the concentration of the labelled peptides started from 5 µM and were diluted in a 2/3 regime over 24 points, with the concentration of the protein fixed at 50 nM. Plates were read after 2 hours of incubation, and read again after 4 and 18 hours to ensure complete equilibration.
as §10, §11, §12, §13, §14, §15
(In general: Polarisation of emitted light reports the rotation of a fluorescent probe.)

A further experiment deals with T3, Mcl-1 (Homo sapiens, UniProt Q07820).
T3 construct: His-SUMO (N, cleaved yes); made in house; host or cells: E. coli Rosetta 2
Kind of experiment: Fluorescence anisotropy direct binding assay with Mcl-1. The method, then: as §16, §2, §3, §4, §5, §6, §7, §8, §17, §18, §10, §11, §12, §13, §14, §15

A further experiment has as its target T4, Mcl-1/FITC-NOXA-B (Homo sapiens, UniProt Q07820).
T4 construct: His-SUMO (N, cleaved yes); made in house; host or cells: E. coli Rosetta 2
Description: Fluorescence anisotropy competition assay, inhibition of Mcl-1/FITC-NOXA-B interaction. It is filed as binding. The settings on record: Table S1, unconstrained BH3 peptides; FA competition; Mcl-1 150 nM, FITC-NOXA-B 50 nM; phosphate buffer pH 7.50; read after 1 h. The method, then: as §1, §2, §3, §4, §5, §6, §7, §8, §9, §10, §11, §12, §13, §14, §15

From paper PMC5618334, “Hydrocarbon constrained peptides – understanding preorganisation and binding affinity” (Chemical Science, 2016) come the findings set out here.

Where a SMILES comes first, the peptide text is derived from it. [ ]: non-standard residue; d: D form. The star is where a group is joined. FITC = O=C1OC2(c3ccc(O)cc3Oc3cc(O)ccc32)c2ccc(NC(=S)*)cc21; Nle = CCCC[C@H](N)C(=O)O; Ahx = NCCCCCC(=O)O

T3 sequence (Q07820 172-327): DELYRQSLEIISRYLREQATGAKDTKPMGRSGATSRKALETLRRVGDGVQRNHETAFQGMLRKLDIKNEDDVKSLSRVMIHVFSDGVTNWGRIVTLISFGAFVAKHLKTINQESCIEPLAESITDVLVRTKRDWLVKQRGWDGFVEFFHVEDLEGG
T2 sequence (Q07817 with tags, fused parts or gaps DEL26-81): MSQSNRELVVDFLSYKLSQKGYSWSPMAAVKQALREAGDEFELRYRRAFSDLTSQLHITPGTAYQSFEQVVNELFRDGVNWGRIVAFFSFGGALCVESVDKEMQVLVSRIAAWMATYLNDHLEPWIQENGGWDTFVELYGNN
T1 sequence (Q07817 with tags, fused parts or gaps DEL26-81): as above
T4 sequence (Q07820 172-327): as the sequence (Q07820 172-327) above

Turning to `CCCC[C@H](NC(=O)C(C)(C)NC(=O)[C@H](CC(=O)O)NC(=O)CNC(=O)[C@@H](NC(=O)C(C)(C)NC(=O)[C@H](C)NC(=O)[C@H](CC(C)C)NC(=O)[C@H](Cc1c[nH]cn1)NC(=O)[C@H](CCCNC(=N)N)NC(=O)[C@H](C)NC(=O)[C@@H](NC(=O)[C@H](CC(N)=O)NC(=O)[C@H](CCCNC(=N)N)NC(=O)[C@@H](NC(=O)[C@@H](NC(=O)[C@H](CC(=O)O)NC(=O)[C@H](CCC(=O)O)NC(C)=O)[C@@H](C)CC)[C@@H](C)CC)[C@@H](C)CC)C(C)C)C(=O)N[C@@H](CC(=O)O)C(=O)N[C@@H](CCCNC(=N)N)C(=O)N[C@@H](CO)C(=O)N[C@H](C(=O)N[C@@H](Cc1c[nH]c2ccccc12)C(N)=O)[C@@H](C)CC` [BID-AIB], on Bcl-xL/BODIPY-BAK, the concentration for half-maximal inhibition (IC50) (as a rule, the concentration at which inhibition is half-maximal) was found to be 1140 ± 50 nM.

`CCCC[C@H](NC(=O)[C@]1(C)CCCC=CCCC[C@](C)(NC(=O)[C@H](C)NC(=O)[C@H](CC(C)C)NC(=O)[C@H](Cc2c[nH]cn2)NC(=O)[C@H](CCCNC(=N)N)NC(=O)[C@H](C)NC(=O)[C@@H](NC(=O)[C@H](CC(N)=O)NC(=O)[C@H](CCCNC(=N)N)NC(=O)[C@@H](NC(=O)[C@@H](NC(=O)[C@H](CC(=O)O)NC(=O)[C@H](CCC(=O)O)NC(=O)CCNC(=S)Nc2ccc3c(c2)C(=O)OC32c3ccc(O)cc3Oc3cc(O)ccc32)[C@@H](C)CC)[C@@H](C)CC)[C@@H](C)CC)C(=O)N[C@@H](C(C)C)C(=O)NCC(=O)N[C@@H](CC(=O)O)C(=O)N1)C(=O)N[C@@H](CC(=O)O)C(=O)N[C@@H](CCCNC(=N)N)C(=O)N[C@@H](CO)C(=O)N[C@H](C(=O)N[C@@H](Cc1c[nH]c2ccccc12)C(N)=O)[C@@H](C)CC` [FITC-BID-DM]: the EC50 (commonly the concentration that produces a half-maximal response) on Bcl-xL (FA direct binding) amounted to 159 ± 13 nM; at Mcl-1, 129 ± 3 nM.

For `CC[C@H](C)[C@H](NC(=O)[C@H](CCCNC(=N)N)NC(=O)[C@H](CCCNC(=N)N)NC(=O)[C@H](CC(C)C)NC(=O)[C@H](CCC(N)=O)NC(=O)[C@H](C)NC(=O)[C@H](CS)NC(=O)[C@H](CCC(=O)O)NC(=O)[C@H](CC(=O)O)NC(=O)[C@H](CCCCN)NC(=O)[C@H](CC(C)C)NC(=O)[C@H](CC(=O)O)NC(=O)[C@H](C)NC(=O)[C@@H]1CCCN1C(=O)CCCCCNC(=S)Nc1ccc2c(c1)C(=O)OC21c2ccc(O)cc2Oc2cc(O)ccc21)C(=O)NCC(=O)N[C@@H](CC(=O)O)C(=O)N[C@@H](CCCCN)C(=O)N[C@H](C(=O)N[C@@H](CC(N)=O)C(=O)N[C@@H](CC(C)C)C(N)=O)C(C)C` [FITC-NOXA-B], the “Bcl-xL Kd” value at Bcl-xL (FA direct binding, labelled unconstrained BH3 peptide, Kd model (Table S1), phosphate buffer for BODIPY-BAK and FITC-NOXA-B, Tris buffer for FITC-BID) is “no binding”. At Mcl-1, the Kd (usually a measure of binding affinity in units of concentration) turned out to be 18.7 ± 0.9 nM.

In the case of “Ac-LWAAQRYGRELRRMSDEFEGSFDKL-NH2 [BAD, reference compound]”, the concentration for half-maximal inhibition (IC50) on Bcl-xL/BODIPY-BAK was 140 ± 15 nM. Also, the “Mcl-1/ FITC-NOXA-B IC50” value on Mcl-1/FITC-NOXA-B is “no inhibition”.

Turning to `CCCC[C@H](NC(=O)[C@@H]1CCC/C=C\CCC[C@H](NC(=O)[C@H](C)NC(=O)[C@H](CC(C)C)NC(=O)[C@H](Cc2c[nH]cn2)NC(=O)[C@H](CCCNC(=N)N)NC(=O)[C@H](C)NC(=O)[C@@H](NC(=O)[C@H](CC(N)=O)NC(=O)[C@H](CCCNC(=N)N)NC(=O)[C@@H](NC(=O)[C@@H](NC(=O)[C@H](CC(=O)O)NC(=O)[C@H](CCC(=O)O)NC(=O)CCNC(=S)Nc2ccc3c(c2)C(=O)OC32c3ccc(O)cc3Oc3cc(O)ccc32)[C@@H](C)CC)[C@@H](C)CC)[C@@H](C)CC)C(=O)N[C@@H](C(C)C)C(=O)NCC(=O)N[C@@H](CC(=O)O)C(=O)N1)C(=O)N[C@@H](CC(=O)O)C(=O)N[C@@H](CCCNC(=N)N)C(=O)N[C@@H](CO)C(=O)N[C@H](C(=O)N[C@@H](Cc1c[nH]c2ccccc12)C(N)=O)[C@@H](C)CC` [FITC-BID-MM], the half-maximal effective concentration (EC50) at Bcl-xL (FA direct binding) was determined as 186 ± 24 nM; on Mcl-1 it was 153 ± 12 nM.

`CC[C@H](C)[C@H](NC(C)=O)C(=O)N[C@@H](Cc1c[nH]c2ccccc12)C(=O)N[C@H](C(=O)N[C@@H](C)C(=O)N[C@@H](CCC(N)=O)C(=O)N[C@@H](CCC(=O)O)C(=O)N[C@@H](CC(C)C)C(=O)N[C@@H](CCCNC(=N)N)C(=O)N[C@@]1(C)CCCC=CCCC[C@@](C)(C(=O)N[C@@H](Cc2ccccc2)C(=O)N[C@@H](CC(N)=O)C(=O)N[C@@H](C)C(=O)N[C@@H](Cc2ccc(O)cc2)C(=O)N[C@@H](Cc2ccc(O)cc2)C(=O)N[C@@H](C)C(=O)N[C@@H](CCCNC(=N)N)C(=O)N[C@@H](CCCNC(=N)N)C(N)=O)NC(=O)[C@H](CC(=O)O)NC(=O)CNC(=O)[C@H]([C@@H](C)CC)NC1=O)[C@@H](C)CC` [BIM-DM]: the IC50 on Bcl-xL/BODIPY-BAK came to 4000 ± 620 nM.

With `CCCC[C@H](NC(=O)[C@H](CO)NC(=O)[C@H](CC(=O)O)NC(=O)CNC(=O)[C@@H](NC(=O)[C@H](CCC(N)=O)NC(=O)[C@H](C)NC(=O)[C@H](CC(C)C)NC(=O)[C@H](Cc1c[nH]cn1)NC(=O)[C@H](CCCNC(=N)N)NC(=O)[C@H](C)NC(=O)[C@@H](NC(=O)[C@H](CC(N)=O)NC(=O)[C@H](CCCNC(=N)N)NC(=O)[C@@H](NC(=O)[C@@H](NC(=O)[C@H](CC(=O)O)NC(=O)[C@H](CCC(=O)O)NC(=O)CCCCCNC(=S)Nc1ccc2c(c1)C(=O)OC21c2ccc(O)cc2Oc2cc(O)ccc21)[C@@H](C)CC)[C@@H](C)CC)[C@@H](C)CC)C(C)C)C(=O)N[C@@H](CC(=O)O)C(=O)N[C@@H](CCCNC(=N)N)C(=O)N[C@@H](CO)C(=O)N[C@H](C(=O)N[C@@H](Cc1c[nH]c2ccccc12)C(N)=O)[C@@H](C)CC` [FITC-BID-WT] ({FITC-Ahx}-EDIIRNIARHLAQVGDS[Nle]DRSIW-NH2), the Kd on Bcl-xL worked out at 21 ± 6.6 nM; at Mcl-1, 50 ± 20 nM. In addition, the EC50 stood at 79 ± 6 nM on Bcl-xL (FA direct binding) and 98 ± 8.9 nM on Mcl-1.
